Data: patent US12358923B2, “Seminaphthofluorophore-selenium probes for thioredoxin reductase” (Portland State University, priority 2019, dated 2025)

Key:
[1] = Turn-on response of probe on reduction of the diselenide with dithiothreitol (DTT); conditions: 10 μM probe
Description: To determine if determine if probe 1 would elicit a turn-on response, dithiothreitol (DTT) was used to reduce the diselenide into the selenolate. DTT is known to reduce both disulfides and diselenides. Excitation and emission spectra were obtained for a 10 μM solution of 1 in 0.3% DMSO, 0.2% NP-40 (nonyl phenoxypolyethoxylethanol), 1 mM EDTA, and 50 mM Tris buffer, pH 7.4, initially without DTT and then with an equimolar amount of DTT (FIG. 1).
To investigate the reactivity and optical responses of probe 1, an aqueous solution of 10 μM probe 1, 10 μM DTT in 0.3% DMSO, 0.2% NP-40, 1 mM EDTA and 50 mM Tris buffer, pH 7.4 was prepared. DTT is a powerful reducing agent for both diselenides and disulfides and might be expected to react with probe 1 by a mechanism similar to the TrxR1 enzyme. […] Excitation at 531 nm afforded emission with a λmax at 580 nm, as expected for the formation of compound 2, which was also monitored by HPLC-MS.

[2] = target: T1, TrxR1 from rat liver (Rattus norvegicus, UniProt O89049); experiment: TrxR1 enzymatic assay and kinetic study (fluorescence increase, NADPH depletion); assay type: biochemical
T1 construct: from tissue; host or cells: rat liver
T1 sequence (O89049 1-499): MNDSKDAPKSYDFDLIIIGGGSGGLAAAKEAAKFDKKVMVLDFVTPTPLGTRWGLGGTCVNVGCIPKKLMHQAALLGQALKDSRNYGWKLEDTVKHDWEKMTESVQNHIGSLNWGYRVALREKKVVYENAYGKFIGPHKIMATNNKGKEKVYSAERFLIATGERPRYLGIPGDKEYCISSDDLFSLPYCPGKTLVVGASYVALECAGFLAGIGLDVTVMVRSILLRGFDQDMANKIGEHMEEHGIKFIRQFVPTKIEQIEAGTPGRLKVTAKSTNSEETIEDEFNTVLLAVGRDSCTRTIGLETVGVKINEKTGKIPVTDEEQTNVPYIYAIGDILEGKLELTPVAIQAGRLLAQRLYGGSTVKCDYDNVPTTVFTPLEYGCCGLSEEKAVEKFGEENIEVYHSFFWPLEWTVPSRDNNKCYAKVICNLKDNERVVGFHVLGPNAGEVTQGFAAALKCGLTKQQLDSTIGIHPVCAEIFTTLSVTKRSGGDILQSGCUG
Description: Enzymatic assays were carried out using TrxR1 from rat liver in the presence of 20 μM probe 1, 10 mM EDTA, 0.2 mg/mL BSA, and 0.24 mM NADPH in phosphate buffer (100 mM, pH 7.4). This solution was pipetted into four different wells in a 96-well plate. 0.03, 0.06 and 0.12 units of TrxR1 were added to different reaction mixtures. Control experiments were set up by omitting either probe 1, NADPH or TrxR1 from the mixtures. After all the reagents had been mixed, the wells were immediately monitored for change in fluorescence (λex=531 nm; λem=580 nm) and NADPH absorbance (λabs,max 340 nm). TrxR1 activity was monitored via fluorescence emission increase of probe 1 (λex=531 nm; λem=580 nm) as well as the depletion of NADPH (λabs=340 nm) upon incubation. Reactions were monitored in black 96-well plates with clear bottoms using a fluorescence plate reader. NADPH and TrxR1 were both required for the conversion of probe 1 to compound 2 and the concomitant turn-on emission (FIG. 2). […] The proposed mechanism for the reaction of probe 1 in the presence of TrxR1 and NADPH is shown in Scheme 7. Nucleophilic attack of the diselenide occurs through the TrxR1 […] residue. The selenolate formed attacks the carbamate carbonyl, and an oxaselenolanone heterocycle and the fluorescent probe 2 are released.
Kinetic studies were carried out for six reaction mixtures with varying amounts (1-20 μM) of probe 1 over 20 min. Reaction mixtures were made with concentrations of: TrxR1 0.12 units, 100 mM phosphate buffer, pH 7.4; 10 mM EDTA, 0.2 mg/mL BSA and 0.24 mM NADPH. 1 was added at different concentrations in the reaction mixture: 20 μM, 10 μM, 5 μM, 3 μM, 1 μM and 0 μM. The reaction was monitored through the change in fluorescence (λex=531 nm; λem=580 nm) and a fluorescence vs time graph was plotted for each substrate concentration (FIG. 3). […] The fluorescence data also was plotted as a reaction rate vs substrate concentration graph (FIG. 4).

[3] = Selectivity against other biological thiols and ions (fluorescence response); assay type: biochemical; conditions: 20 μM probe, 20 minutes; 100 μM Na2S, Na2SO3, Na2SO4, Na2S2O3, Hcy, Cys or 1 mM GSH; phosphate buffer pH 7.4
Description: The selectivity of TrxR1 for probe 1 was evaluated against other biological thiols and ions. Probe 1, at a concentration of 20 μM, was incubated for 20 minutes with 0.12 units TrxR1, 100 μM Na2S, 100 μM Na2SO3, 100 μM Na2SO4, 100 μM Na2S2O3, 100 μM homocysteine (Hcy), 100 μM cysteine (Cys), or 1 mM glutathione (GSH) in 100 mM phosphate buffer, pH 7.4; 10 mM EDTA, 0.2 mg/mL BSA and 0.24 mM NADPH.

[4] = system: SK-MEL-5 melanoma cell line; experiment: MTS cytotoxicity assay (CellTiter 96 Aqueous One Solution); assay type: cell-based; conditions: Homo sapiens, SK-MEL-5 cells
Description: (§1) MTS cytotoxicity assays for probe 1 were carried out using the CellTiter 96® Aqueous One Solution Cell Proliferation Assay (Promega Corporation, Madison, WI), with A375 and SK-MEL-5 melanoma cell lines. The following treatment groups were made:
(§2) The IC50 is the probe concentration required to kill 50% of the cells in the specified time period.

[5] = system: A375 melanoma cell line; experiment: as above; assay type: cell-based; conditions: Homo sapiens, A-375, A375 cells
Description: as §1, §2

[6] = Maximum absorbance and emission wavelengths of the seminaphthofluorophore scaffolds; assay type: physicochemical; conditions: seminaphthofluorophore scaffold (without the diselenide moiety/moieties) of the compound; 10% DMSO, 100 mM phosphate buffer, pH 7.4
Description: Initial absorbance measurements were performed on a Cary Eclipse™ 50 Bio UV-Vis spectrophotometer. Fluorescence measurements were performed on a Cary Eclipse™ fluorescence spectrophotometer (Agilent Technologies, Santa Clara, CA).

[7] = equimolar DTT, 0.3% DMSO, 0.2% NP-40, 1 mM EDTA, 50 mM Tris buffer, pH 7.4

Q: For `COc1cccc2ccc3c(c12)Oc1cc(NC(=O)OCC[Se][Se]CCO)ccc1C31OC(=O)c2ccccc21` (stereo not drawn) [Probe 1], which “Emission λmax after addition of DTT” value ([1]; 10 μM DTT, Tris buffer pH 7.4, excitation at 531 nm, formation of compound 2) is on record?
A: The value was 580 nm.

Q: What about the “Colour change of solution with DTT” value [1, 7] of the same molecule?
A: Its value is “colorless to red”.

Q: What about the “Fluorescence turn-on response with DTT” value [1, 7] of the same molecule?
A: The value was “instantaneous turn-on response”.

Q: And the “Time at which fluorescence intensity began to plateau” value ([2]; 20 μM probe, 0.12 units TrxR, 0.24 mM NADPH, phosphate buffer pH 7.4, λex 531 nm, λem 580 nm)?
A: Its value is 20 min.

Q: And the “Fluorescence in the absence of NADPH or TrxR” value ([2]; 20 μM probe, control omitting NADPH or TrxR1)?
A: Its value is “no fluorescence was observed”.

Q: What about the Km ([2]; 1-20 μM probe, 0.12 units TrxR1, 0.24 mM NADPH, 100 mM phosphate buffer pH 7.4, 20 min) of the same molecule?
A: Its Km is 15.9 µM.

Q: And the “Change in fluorescence with other thiols and ions compared with TrxR1” value [3]?
A: The value was “None afforded a significant change in fluorescence”.

Q: And the IC50 ([4]; 24 hours)?
A: The IC50 was 4770 nM.

Q: What about the IC50 ([4]; 48 hours) of the same molecule?
A: Its IC50 is 3100 nM.

Q: What about the IC50 ([4]; 72 hours) of the same molecule?
A: The IC50 was 2300 nM.

Q: What about the IC50 ([5]; 24 hours) of the same molecule?
A: The IC50 was 3530 nM.

Q: And the IC50 ([5]; 48 hours)?
A: Its IC50 is 2230 nM.

Q: And the IC50 ([5]; 72 hours)?
A: The IC50 was 2550 nM.

Q: What about the “λmax, abs (nm)” value [6] of the same molecule?
A: Its value is 531 nm.

Q: And the “λmax, em (nm)” value [6]?
A: Its value is 580 nm.
